What all share (format): cell-based
One experiment concerns Escherichia coli. The experiment in a line: Agar plate disc-diffusion antibacterial test, Escherichia coli. The note with it: Gram negative. The method, then: (§1) The agar plate disc-diffusion method was applied. […] The discs were then placed onto the surface of agar plates (nutrient agar for bacteria) seeded with the test organism. Each plate contained 15 mL of the agar medium, previously seeded with 0.2 mL of the broth culture of each organism pregrown for 18 hours. The inhibition zones were measured in millimeters (mm). Discs impregnated with DMSO were used as a control, and its inhibition zone was subtracted from the tested compound's actual inhibition zone.
(§2) The antibacterial activity was screened against gram positive bacteria namely Bacillus cereus and Staphylococcus aureus and gram-negative bacterial strains namely Pseudomonas aeruginosa and Escherichia coli using ciprofloxacin as a reference, as shown in Table 1.
(Agar diffusion results depend on both activity and mobility in agar.)

Another experiment deals with Pseudomonas aeruginosa. The experiment in a line: Agar plate disc-diffusion antibacterial test, Pseudomonas aeruginosa. Conditions: Gram negative. The method, then: as §1, §2
Another experiment deals with Staphylococcus aureus. The experiment in a line: Agar plate disc-diffusion antibacterial test, Staphylococcus aureus. Conditions: Gram positive. The method, then: as §1, §2
The subject of a further experiment is Bacillus cereus. The experiment in a line: Agar plate disc-diffusion antibacterial test, Bacillus cereus. The note with it: Gram positive. As to the method: as §1, §2
Setting [1] is: A = concentration of comp. = 10,000 μL.
The mark [2] stands for this setting: B = concentration of comp. = 30.000 μL.
Setting [3] is: C = concentration of comp. = 50,000 μL.

As to `CCOc1nc(N)c(C#N)c(-c2ccc(Br)cc2)c1C#N` [Compound 3, 2-amino-4-(4-bromophenyl)-6-ethoxypyridine-3,5-dicarbonitrile], the “inhibition zone, Escherichia coli, A” value in the experiment on Escherichia coli (setting [1]) was found to be 37 mm. Moreover, the “inhibition zone, Escherichia coli, B” value in the experiment on Escherichia coli (setting [2]) stood at 40 mm. Moreover, in the experiment with Escherichia coli (setting [3]), the “inhibition zone, Escherichia coli, C” value amounted to 44 mm. In addition, in the experiment with Pseudomonas aeruginosa (setting [1]), the “inhibition zone, Pseudomonas aeruginosa, A” value was determined as 23 mm. Moreover, in the experiment on Pseudomonas aeruginosa (setting [2]), the “inhibition zone, Pseudomonas aeruginosa, B” value stood at 33 mm. Further, the “inhibition zone, Pseudomonas aeruginosa, C” value in the experiment with Pseudomonas aeruginosa (setting [3]) is 39 mm. Besides, the “inhibition zone, Staphylococcus aureus, A” value in the experiment with Staphylococcus aureus (setting [1]) was 19 mm. In addition, the “inhibition zone, Staphylococcus aureus, B” value in the experiment on Staphylococcus aureus (setting [2]) was 26 mm. Also, the “inhibition zone, Staphylococcus aureus, C” value in the experiment with Staphylococcus aureus (setting [3]) is 31 mm. The “inhibition zone, Bacillus Cereus, A” value with Bacillus cereus (setting [1]) is on record as 30 mm. Further, the “inhibition zone, Bacillus Cereus, B” value in the experiment on Bacillus cereus (setting [2]) is 36 mm. The “inhibition zone, Bacillus Cereus, C” value in the experiment on Bacillus cereus (setting [3]) turned out to be 41 mm.

The record behind these values is patent US11986465B1, “2-amino-4-(4-bromophenyl)-6-ethoxypyridine-3,5-dicarbonitrile as an antibacterial compound” (KING FAISAL UNIVERSITY, priority 2023, dated 2024).
